What was measured:
[1] = target: BACE1 (Homo sapiens (Human), UniProt P56817); test: Cellular Aβ-lowering assay; format: cell-based; conditions: HEK293 cells expressing human APP695, Aβ40 in supernatant by ELISA
Description: Cellular Aβ-Lowering Assay:
Human HEK293 cells which are stably transfected with a vector expressing a cDNA of the human APP wt gene (APP695) were used to assess the potency of the compounds in a cellular assay. The cells were seeded in 96-well microtiter plates in cell culture medium (Iscove, plus 10% (v/v) fetal bovine serum, glutamine, penicillin/streptomycin) to about 80% confluence and the compounds were added at a 10× concentration in 1/10 volume of medium without FCS containing 8% DMSO (final concentration of DMSO was kept at 0.8% v/v). After 18-20 hrs incubation at 37° C. and 5% CO2 in a humidified incubator the culture supernatant was harvested for the determination of Aβ40 concentrations. 96 well ELISA plates (e.g., Nunc MaxiSorb) were coated with monoclonal antibody which specifically recognize the C-terminal end of Aβ40 (Brockhaus et al., NeuroReport 9, 1481-1486; 1998). After blocking of non-specific binding sites with e.g. 1% BSA and washing, the culture supernatants were added in suitable dilutions together with a horseradish peroxidase-coupled Aβ detection antibody (e.g., antibody 4G8, Senetek, Maryland Heights, Mo.) and incubated for 5 to 7 hrs. Subsequently the wells of the microtiter plate were washed extensively with Tris-buffered saline containing 0.05% Tween 20 and the assay was developed with tetramethylbenzidine/H2O2 in citric acid buffer. After stopping the reaction with one volume 1 N H2SO4 the reaction was measured in an ELISA reader at 450 nm wavelength. The concentrations of Aβ in the culture supernatants were calculated from a standard curve obtained with known amounts of pure Aβ peptide.

[2] = target: BACE2 (Rattus norvegicus (Rat), UniProt Q6IE75); test: Assay for BACE inhibition by measuring cellular TMEM27 cleavage; format: cell-based; conditions: INS-TMEM27 (INS1e-derived) cells, shed hTMEM27 by ELISA
From the text: Assay for BACE Inhibition by Measuring Cellular TMEM27 Cleavage:
The assay uses the principle of inhibition of human TMEM27 cleavage by endogenous cellular BACE2 in the Ins1e rat cell line and shedding from the cell surface into the culture medium, followed by detection in an ELISA assay Inhibition of BACE2 prevents the cleavage and shedding in a dose-dependent manner.
The stable cell line “INS-TMEM27” represents an INS1e-derived cell line with inducible expression (using the TetOn system) of full-length hTMEM27 in a doxycycline-dependent manner. The cells are cultured throughout the experiment in RPMI1640+Glutamax (Invitrogen) Penicillin/Streptomycin, 10% Fetal bovine serum, […], […], 100 micrograms/ml G418 and 100 microgram/ml hygromycin and are grown inadherent culture at 37° C. in a standard CO2 cell culture incubator.
INS-TMEM27 cells are seeded in 96-well plates. After 2 days in culture, BACE2 inhibitor is added in a range of concentrations as required by the assay and after a further two hours, doxycycline is added to a final concentration of 500 ng/ml. The cells are incubated for a further 46 hours and the supernatant harvested for detection of shed TMEM27.
An ELISA assay (using a pair of mouse anti-human-TMEM27 antibodies, raised against the extracellular domain of TMEM27) is used for detection of TMEM27 in the culture medium. An EC50 for BACE2 inhibition is calculated using the ELISA readout for each inhibitor concentration with standard curve-fitting software such as XLFit for the Excel spreadsheet program.

Chain of BACE1 (P56817 46-501): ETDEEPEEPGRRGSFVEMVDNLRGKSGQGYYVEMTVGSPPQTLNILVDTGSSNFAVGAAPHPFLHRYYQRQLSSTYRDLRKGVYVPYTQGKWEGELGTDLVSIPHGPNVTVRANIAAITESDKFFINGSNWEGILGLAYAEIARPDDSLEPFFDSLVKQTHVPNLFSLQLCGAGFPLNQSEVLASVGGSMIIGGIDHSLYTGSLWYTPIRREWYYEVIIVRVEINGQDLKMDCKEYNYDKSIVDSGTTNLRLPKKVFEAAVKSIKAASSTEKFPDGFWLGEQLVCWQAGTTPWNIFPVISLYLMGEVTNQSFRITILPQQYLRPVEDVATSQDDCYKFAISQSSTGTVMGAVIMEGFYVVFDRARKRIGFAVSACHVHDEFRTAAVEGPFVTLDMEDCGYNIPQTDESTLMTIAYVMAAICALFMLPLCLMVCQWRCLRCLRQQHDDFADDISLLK
Chain of BACE2 (Q6IE75 63-514): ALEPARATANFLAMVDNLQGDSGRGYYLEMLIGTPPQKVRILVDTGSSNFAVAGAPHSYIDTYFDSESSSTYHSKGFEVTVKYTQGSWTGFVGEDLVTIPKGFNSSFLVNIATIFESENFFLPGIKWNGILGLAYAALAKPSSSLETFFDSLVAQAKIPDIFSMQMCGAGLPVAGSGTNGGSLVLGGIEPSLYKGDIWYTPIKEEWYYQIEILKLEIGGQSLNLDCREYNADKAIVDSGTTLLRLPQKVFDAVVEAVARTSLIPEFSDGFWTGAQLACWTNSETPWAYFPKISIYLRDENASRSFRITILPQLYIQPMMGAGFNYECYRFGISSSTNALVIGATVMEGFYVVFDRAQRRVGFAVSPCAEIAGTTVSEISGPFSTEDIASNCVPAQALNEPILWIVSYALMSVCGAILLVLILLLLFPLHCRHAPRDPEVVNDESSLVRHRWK

Row | Compound | IC50 [1] | IC50 [2]
1 | C[C@]1(c2cc(NC(=O)c3ccc(C#N)cn3)ccc2F)N=C(N)CS(=O)(=O)[C@H]2COC[C@@H]21 (relative stereo) [Example 14, 5-Cyano-pyridine-2-carboxylic acid [3-((3aR,8S,8aS)-rel-6-amino-8-methyl-4,4-dioxo-3,3a,4,5,8,8a-hexahydro-1H-2-oxa-4λ^6-thia-7-aza-azulen-8-yl)-4-fluoro-phenyl]-amide] | 78 nM | –
2 | CC1SCC[C@@](C)(c2cc(NC(=O)c3ccc(F)cn3)ccc2F)N=C1N (stereo in doubt) [Example 5, 5-Fluoro-pyridine-2-carboxylic acid [3-((S)-3-amino-2,5-dimethyl-2,5,6,7-tetrahydro-[1,4]thiazepin-5-yl)-4-fluoro-phenyl]-amide] | 170 nM | 21 nM
3 | CC1SCC[C@@](C)(c2cc(NC(=O)c3ccc(Cl)cn3)ccc2F)N=C1N (stereo in doubt) [Example 6, 5-Chloro-pyridine-2-carboxylic acid [3-((S)-3-amino-2,5-dimethyl-2,5,6,7-tetrahydro-[1,4]thiazepin-5-yl)-4-fluoro-phenyl]-amide] | 140 nM | 9 nM
4 | CC1C(N)=N[C@](C)(c2cc(NC(=O)c3ccc(F)cn3)ccc2F)CCS1(=O)=O (stereo in doubt) [Example 7, 5-Fluoro-pyridine-2-carboxylic acid [3-((S)-3-amino-2,5-dimethyl-1,1-dioxo-2,5,6,7-tetrahydro-1H-1λ^6-[1,4]thiazepin-5-yl)-4-fluoro-phenyl]-amide] | 4 nM | 2 nM
5 | CC1C(N)=N[C@](C)(c2cc(NC(=O)c3[nH]ncc3Cl)ccc2F)CCS1(=O)=O (stereo in doubt) [Example 9, 4-Chloro-2H-pyrazole-3-carboxylic acid [3-((S)-3-amino-2,5-dimethyl-1,1-dioxo-2,5,6,7-tetrahydro-1H-1λ^6-[1,4]thiazepin-5-yl)-4-fluoro-phenyl]-amide] | 300 nM | 858 nM
6 | C[C@@]1(c2cc(NC(=O)c3ccc(Cl)cn3)ccc2F)CCSCC(N)=N1 [Example 1, 5-Chloro-pyridine-2-carboxylic acid [3-((S)-3-amino-5-methyl-2,5,6,7-tetrahydro-[1,4]thiazepin-5-yl)-4-fluoro-phenyl]-amide] | 6.3 nM | 167 nM
7 | C[C@@]1(c2cc(NC(=O)c3ccc(F)cn3)ccc2F)CCSCC(N)=N1 [Example 2, 5-Fluoro-pyridine-2-carboxylic acid [3-((S)-3-amino-5-methyl-2,5,6,7-tetrahydro-[1,4]thiazepin-5-yl)-4-fluoro-phenyl]-amide] | 16 nM | 79 nM
8 | C[C@@]1(c2cc(NC(=O)c3ccc(Cl)cn3)ccc2F)CCS(=O)(=O)CC(N)=N1 [Example 3, 5-Chloro-pyridine-2-carboxylic acid [3-((S)-3-amino-5-methyl-1,1-dioxo-2,5,6,7-tetrahydro-1H-1λ^6-[1,4]thiazepin-5-yl)-4-fluoro-phenyl]-amide] | 3 nM | 5 nM
9 | C[C@@]1(c2cc(NC(=O)c3ccc(F)cn3)ccc2F)CCS(=O)(=O)CC(N)=N1 [Example 4, 5-Fluoro-pyridine-2-carboxylic acid [3-((S)-3-amino-5-methyl-1,1-dioxo-2,5,6,7-tetrahydro-1H-1λ^6-[1,4]thiazepin-5-yl)-4-fluoro-phenyl]amide] | 20 nM | 4 nM
10 | CC1C(N)=N[C@](C)(c2cc(NC(=O)c3ccc(Cl)cn3)ccc2F)CCS1(=O)=O (stereo partly drawn) [Example 8, 5-Chloro-pyridine-2-carboxylic acid [3-((S)-3-amino-2,5-dimethyl-1,1-dioxo-2,5,6,7-tetrahydro-4H-1λ^6-[1,4]thiazepin-5-yl)-4-fluoro-phenyl]-amide] | 30 nM | 16 nM
11 | CC1(C)C(N)=N[C@](C)(c2cc(NC(=O)c3ccc(F)cn3)ccc2F)CCS1(=O)=O [Example 10, 5-Fluoro-pyridine-2-carboxylic acid [3-((S)-3-amino-2,2,5-trimethyl-1,1-dioxo-2,5,6,7-tetrahydro-1H-1λ^6-[1,4]thiazepin-5-yl)-4-fluoro-phenyl]-amide] | 62 nM | 181 nM
12 | CC1(C)C(N)=N[C@](C)(c2cc(NC(=O)c3[nH]ncc3Cl)ccc2F)CCS1(=O)=O [Example 11, 4-Chloro-2H-pyrazole-3-carboxylic acid [3-((S)-3-amino-2,2,5-trimethyl-1,1-dioxo-2,5,6,7-tetrahydro-1H-1λ^6-[1,4]thiazepin-5-yl)-4-fluoro-phenyl]-amide] | 2290 nM | –
13 | CC1(C)C(N)=N[C@](C)(c2cc(NC(=O)c3ccc(C#N)cn3)ccc2F)CCS1(=O)=O [Example 12, 5-Cyano-pyridine-2-carboxylic acid [3-((S)-3-amino-2,2,5-trimethyl-1,1-dioxo-2,5,6,7-tetrahydro-1H-1λ^6-[1,4]thiazepin-5-yl)-4-fluoro-phenyl]-amide] | 53 nM | –
14 | N#Cc1ccc(C(=O)Nc2ccc(F)c([C@]3(C(F)F)CCS(=O)(=O)CC(N)=N3)c2)nc1 [Example 13, 5-Cyano-pyridine-2-carboxylic acid [3-((S)-3-amino-5-difluoromethyl-1,1-dioxo-2,5,6,7-tetrahydro-1H-1λ^6-[1,4]thiazepin-5-yl)-4-fluoro-phenyl]-amide] | 260 nM | –

Reference: patent publication US9067924B2, “1,4 thiazepines/sulfones as BACE1 and/or BACE2 inhibitors” (HOFFMANN-LA ROCHE INC., priority 2011, dated 2015)
